Experimental data taken from ChEMBL document CHEMBL5338761 (J Med Chem, 2023).
pIC50: −log10 of the molar value.

Tests used:
[1] = system: TERT-RPE1; experiment: Antiproliferative activity against BRCA1 knockout human RPE-1 cells assessed as inhibition of cell growth by CellTiter-Glo assay; assay type: functional, cell-based
[2] = system: TERT-RPE1; experiment: Antiproliferative activity against P53 and BRCA1 knockout human RPE-1 cells assessed as inhibition of cell growth by CellTiter-Glo assay; assay type: functional, cell-based
[3] = system: TERT-RPE1; experiment: Antiproliferative activity against P53 knockout human RPE-1 cells assessed as inhibition of cell growth by CellTiter-Glo assay; assay type: functional, cell-based
[4] = system: TOV21G; experiment: Antiproliferative activity against HR knockout human TOV-21G cells assessed as fold change in olaparib IC50 by CellTiter-Glo assay; assay type: functional
[5] = system: TERT-RPE1; experiment: Antiproliferative activity against BRCA1 knockout human RPE-1 cells assessed as fold change in rucaparib IC50 by CellTiter-Glo assay; assay type: functional
[6] = target: T1, DNA polymerase theta (Homo sapiens, UniProt O75417); experiment: Inhibition of N-terminal/C-termianl Flag-tagged POLQ (unknown origin) (2 to 2590 residues) expressed in baculovirus incubated for 30 mins by fluorescence based analysis
T1 sequence (O75417 whole entry, the tested form may be a part): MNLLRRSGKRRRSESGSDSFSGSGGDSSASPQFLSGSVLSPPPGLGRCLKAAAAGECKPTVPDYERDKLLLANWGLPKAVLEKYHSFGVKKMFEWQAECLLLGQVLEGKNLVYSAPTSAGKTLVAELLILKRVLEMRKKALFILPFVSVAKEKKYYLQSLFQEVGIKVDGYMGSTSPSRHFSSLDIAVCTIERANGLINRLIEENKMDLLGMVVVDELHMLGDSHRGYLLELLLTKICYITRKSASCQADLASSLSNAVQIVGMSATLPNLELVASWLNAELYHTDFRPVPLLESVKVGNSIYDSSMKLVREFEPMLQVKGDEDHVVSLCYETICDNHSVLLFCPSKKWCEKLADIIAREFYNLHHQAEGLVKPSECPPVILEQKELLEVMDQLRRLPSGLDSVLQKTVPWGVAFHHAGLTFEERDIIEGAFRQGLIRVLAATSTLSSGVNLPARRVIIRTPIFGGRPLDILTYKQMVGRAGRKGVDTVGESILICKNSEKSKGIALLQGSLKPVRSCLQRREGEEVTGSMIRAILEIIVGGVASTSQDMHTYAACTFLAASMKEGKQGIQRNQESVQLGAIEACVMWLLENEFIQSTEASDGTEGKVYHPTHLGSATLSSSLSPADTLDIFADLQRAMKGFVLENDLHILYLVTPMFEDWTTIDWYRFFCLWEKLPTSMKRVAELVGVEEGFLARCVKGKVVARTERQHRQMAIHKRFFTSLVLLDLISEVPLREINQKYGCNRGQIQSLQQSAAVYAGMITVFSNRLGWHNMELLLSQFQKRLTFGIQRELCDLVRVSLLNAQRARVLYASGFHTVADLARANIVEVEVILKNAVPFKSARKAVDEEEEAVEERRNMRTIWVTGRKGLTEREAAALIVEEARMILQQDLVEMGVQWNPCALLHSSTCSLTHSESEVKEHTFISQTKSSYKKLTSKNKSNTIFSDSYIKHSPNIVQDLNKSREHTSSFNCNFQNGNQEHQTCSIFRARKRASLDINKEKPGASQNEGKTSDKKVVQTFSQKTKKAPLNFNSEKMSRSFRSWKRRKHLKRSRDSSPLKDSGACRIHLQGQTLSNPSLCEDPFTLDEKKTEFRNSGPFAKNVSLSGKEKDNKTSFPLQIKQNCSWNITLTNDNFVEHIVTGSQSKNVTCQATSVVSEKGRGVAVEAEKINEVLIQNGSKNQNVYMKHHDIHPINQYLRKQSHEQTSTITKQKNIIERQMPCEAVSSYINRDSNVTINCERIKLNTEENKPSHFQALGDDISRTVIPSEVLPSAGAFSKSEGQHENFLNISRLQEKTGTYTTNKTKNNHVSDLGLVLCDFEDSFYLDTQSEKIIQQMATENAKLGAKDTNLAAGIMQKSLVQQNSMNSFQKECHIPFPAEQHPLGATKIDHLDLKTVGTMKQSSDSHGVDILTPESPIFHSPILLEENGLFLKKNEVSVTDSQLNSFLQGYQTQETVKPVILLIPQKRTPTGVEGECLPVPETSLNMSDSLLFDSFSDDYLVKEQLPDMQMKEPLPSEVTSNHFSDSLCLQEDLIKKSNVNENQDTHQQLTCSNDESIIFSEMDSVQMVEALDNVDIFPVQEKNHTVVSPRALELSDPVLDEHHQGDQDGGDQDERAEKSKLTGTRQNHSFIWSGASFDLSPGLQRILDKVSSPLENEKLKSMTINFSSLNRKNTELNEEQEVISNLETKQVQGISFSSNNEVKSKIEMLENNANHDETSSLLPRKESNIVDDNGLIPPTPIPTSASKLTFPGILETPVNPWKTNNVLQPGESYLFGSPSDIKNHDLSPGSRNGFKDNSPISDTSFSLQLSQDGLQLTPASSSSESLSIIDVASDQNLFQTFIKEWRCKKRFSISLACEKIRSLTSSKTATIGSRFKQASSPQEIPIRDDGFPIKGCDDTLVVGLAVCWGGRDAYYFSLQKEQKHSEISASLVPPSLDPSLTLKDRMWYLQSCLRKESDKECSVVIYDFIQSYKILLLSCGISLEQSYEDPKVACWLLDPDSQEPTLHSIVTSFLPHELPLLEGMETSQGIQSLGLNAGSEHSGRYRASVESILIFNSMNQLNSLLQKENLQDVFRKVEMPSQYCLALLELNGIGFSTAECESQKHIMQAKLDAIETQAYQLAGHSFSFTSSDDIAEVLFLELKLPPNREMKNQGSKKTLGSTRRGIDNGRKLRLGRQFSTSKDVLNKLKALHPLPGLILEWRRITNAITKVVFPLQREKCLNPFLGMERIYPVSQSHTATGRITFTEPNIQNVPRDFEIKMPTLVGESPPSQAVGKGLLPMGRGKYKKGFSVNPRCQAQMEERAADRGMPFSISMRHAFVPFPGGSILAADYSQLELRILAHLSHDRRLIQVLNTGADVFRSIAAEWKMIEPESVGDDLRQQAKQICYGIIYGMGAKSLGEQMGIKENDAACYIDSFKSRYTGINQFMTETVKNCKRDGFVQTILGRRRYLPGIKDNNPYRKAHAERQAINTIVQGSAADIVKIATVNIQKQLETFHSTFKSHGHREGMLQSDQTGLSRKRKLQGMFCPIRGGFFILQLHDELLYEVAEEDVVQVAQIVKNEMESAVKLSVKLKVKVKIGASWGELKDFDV

[7] = target: T1, DNA polymerase theta; experiment: Inhibition of POLQ (unknown origin); assay type: single protein
[8] = target: T1, DNA polymerase theta; experiment: Inhibition of POLQ (unknown origin) incubated for 15 mins in presence of ATP and NADPH by absorbance based analysis
[9] = target: T1, DNA polymerase theta; experiment: Inhibition of POLQ PD (unknown origin) (1819 to 2590 residues) incubated for 15 mins by fluorescence based analysis
[10] = target: T1, DNA polymerase theta; experiment: Inhibition of POLQ PD (unknown origin) (1819 to 2590 residues) incubated for 15 mins by luminescence based analysis
[11] = target: T1, DNA polymerase theta; experiment: Inhibition of POLQ PD (unknown origin) (1819 to 2590 residues) by fluorescence based analysis
[12] = target: T1, DNA polymerase theta; experiment: Inhibition of POLQ (unknown origin) (1 to 987 residues) using […] as substrate incubated for 30 mins in presence of ATP relative to control
[13] = system: HCT-116; experiment: Antiproliferative activity against human HCT-116 cells assessed as inhibition of cell growth incubated for 6 days by CellTiter-Glo assay; assay type: functional, cell-based; details: HCT-116, 144 h
[14] = Antiproliferative activity against human MDA-1986 cells assessed as inhibition of cell growth incubated for 6 days by CellTiter-Glo assay; assay type: functional, cell-based; details: MDA1986, 144 h
[15] = system: TERT-RPE1; experiment: Antiproliferative activity against human RPE-1 cells expressing wild type BRCA1 assessed as inhibition of cell growth by CellTiter-Glo assay; assay type: functional, cell-based
[16] = system: PC-3; experiment: Antiproliferative activity against human PC-3 cells assessed as inhibition of cell growth incubated for 6 days by CellTiter-Glo assay; assay type: functional, cell-based; details: PC-3, 144 h
[17] = system: MCF7; experiment: Antiproliferative activity against human MCF7 cells assessed as inhibition of cell growth incubated for 6 days by CellTiter-Glo assay; assay type: functional, cell-based; details: MCF7, 144 h
[18] = system: A549; experiment: Antiproliferative activity against human A549 cells assessed as inhibition of cell growth incubated for 6 days by CellTiter-Glo assay; assay type: functional, cell-based; details: A549, 144 h

Q: With `CO[C@@H]1[C@@H](OC(N)=O)[C@@H](O)[C@H](Oc2ccc3c(O)c(NC(=O)c4ccc(O)c(CC=C(C)C)c4)c(=O)oc3c2C)OC1(C)C` [NOVOBIOCIN] as the compound, how does the pIC50 [1] read?
A: 4.07

Q: And the pIC50 [2]?
A: 4.01

Q: What about the pIC50 [3] of the same compound?
A: 3.45

Q: What about the “fold change (FC)” value [4] of the same compound?
A: 40

Q: What about the “fold change (FC)” value [5] of the same compound?
A: 20

Q: With `Cc1ccc(NC(=O)Nc2cncc(-c3ccc(OCC4(C)CCOC4)c(C)c3)n2)cn1` (centres undefined) as the compound, how does the pIC50 [6] read?
A: 8.70

Q: With `Cc1nc(NCC(=O)N(C)c2ccccc2)c(C#N)c(C)c1Cl` as the compound, how does the pIC50 [7] read?
A: > 6.70

Q: With `Cc1nc(NCc2nccn2-c2ccccc2)c(C#N)c(C)c1Cl` as the compound, how does the pIC50 [7] read?
A: > 6.70

Q: With `COc1ccccc1-c1cc(C)ncc1C(=O)Nc1nnc(OCc2ccc(Cl)cn2)s1` as the compound, how does the pIC50 [8] read?
A: ≥ 6.70

Q: With `Cc1nc(SCC(=O)N(C)c2ccccc2)c(C#N)c(C)c1Cl` as the compound, how does the pIC50 [9] read?
A: 6.70

Q: And the pIC50 [10]?
A: 6.70

Q: With `CN(C(=O)CNc1nc(C(F)(F)F)cc(C(F)(F)F)c1C#N)c1ccc(F)cc1` as the compound, how does the pIC50 [11] read?
A: > 6.70

Q: With `Cc1cccc(N(C)C(=O)[C@@H]2CCCN2c2nc(C)cc(C(F)(F)F)c2C#N)c1` as the compound, how does the pIC50 [7] read?
A: > 6.70

Q: With `Cc1cc(-c2nc(NC(=O)N[C@H]3CCCNC3)cs2)ccc1OC[C@]1(C)CCOC1` as the compound, how does the pIC50 [6] read?
A: 8.15

Q: With `COc1cnc(Cl)cc1-c1cc(C)ncc1C(=O)Nc1nnc(OCc2ccc(Cl)cn2)s1` as the compound, how does the pIC50 [8] read?
A: ≥ 6.70

Q: With `COc1cccc(-c2cc(C(=O)N[C@H]3CC[C@H](c4ccc(OC5CCNCC5)cc4)CC3)ccc2OC)c1` as the compound, how does the inhibition [12] read?
A: 70%

Q: With `CN(C(=O)[C@@H]1CCCN1c1cc(C(F)(F)F)ccn1)c1ccc(F)cc1` as the compound, how does the pIC50 [7] read?
A: > 6.70

Q: With `N#Cc1c(C(F)(F)F)cc(C(F)(F)F)nc1NCc1nccn1-c1ccc(F)cc1` as the compound, how does the pIC50 [11] read?
A: > 6.70

Q: With `Cc1cc(C(F)(F)F)cc(N2C(=O)OC[C@H]2c2nc(Cl)cn2-c2ccc(F)c(Cl)c2)n1` as the compound, how does the pIC50 [9] read?
A: 8.30

Q: With `Cc1c(OC2CCN(C)CC2)ccc2cc(NC(=O)Nc3ccc(C(F)(F)F)cc3)c(=O)oc12` as the compound, how does the pIC50 [13] read?
A: 6.10

Q: What about the pIC50 [1] of the same compound?
A: 6.80

Q: What about the inhibition [12] of the same compound?
A: 50%

Q: And the pIC50 [14]?
A: 6.05

Q: And the pIC50 [15]?
A: 6.35

Q: What about the pIC50 [16] of the same compound?
A: 7.22

Q: What about the pIC50 [17] of the same compound?
A: 6.34

Q: And the pIC50 [18]?
A: 6.89

Q: What does the source list for `CN(C(=O)[C@@H]1CCCN1c1cc(C(F)(F)F)cc(C(F)(F)F)n1)c1ccc(F)cc1`?
A: pIC50 [9]: ≥ 6.70; pIC50 [10]: ≥ 6.70
